Data: patent publication US7491819B1 (priority 2004, dated 2009)
pIC50: −log10 of the molar value.

biological target: T1, HIV-integrase (Human immunodeficiency virus type 1 group M subtype B, UniProt P12497); assay: HIV-Integrase Inhibition Activity (SPA bead strand-transfer assay); assay type: biochemical; conditions: Table 1; read-out: Activity (HIV-integrase inhibition, IC50 class)
T1 construct: Recombinant integrase (0.26 ng) was incubated with the beads
Summary of the method: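 Strand-transfer read-out: CPM from P33-labelled target DNA (0.1 fmol) joined to bead-bound biotin substrate DNA (5 pmole), with EDTA stop at 10 mM final. Integrase (0.26 ng) prebound to streptavidin SPA beads 90 min, 37° C, and washed before adding inhibitor.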

Structure (SMILES)	pIC50
CC1(C)OCCn2c1nc(C(=O)NCc1ccc(F)cc1N1CCOC1=O)c(O)c2=O [Example 127, N-(4-Fluoro-2-(2-oxooxazolidin-3-yl)benzyl)-3-hydroxy-9,9-dimethyl-4-oxo-4,6,7,9-tetrahydropyrimido[2,1-c][1,4]oxazine-2-carboxamide]	7.00 to 8.70
CC1(C)OCCn2c1nc(C(=O)NCc1ccc(F)cc1N1C(=O)CC[C@@H]1CO)c(O)c2=O [Example 128, Pyrimido[2,1-c][1,4]oxazine-2-carboxamide, N-[[4-fluoro-2-[(2R)-2-(hydroxymethyl)-5-oxo-1-pyrrolidinyl]phenyl]methyl]-4,6,7,9-tetrahydro-3-hydroxy-9,9-dimethyl-4-oxo-]	7.00 to 8.70
CC(=O)OC[C@H]1CCC(=O)N1c1cc(F)ccc1CNC(=O)c1nc2n(c(=O)c1O)CCOC2(C)C [Example 129, Pyrimido[2,1-c][1,4]oxazine-2-carboxamide, N-[[2-[(2R)-2-[(acetyloxy)methyl]-5-oxo-1-pyrrolidinyl]-4-fluorophenyl]methyl]-4,6,7,9-tetrahydro-3-hydroxy-9,9-dimethyl-4-oxo-]	7.00 to 8.70
CC1(C)OCCn2c1nc(C(=O)NCc1ccc(F)cc1N1C(=O)CC[C@H]1CO)c(O)c2=O [Example 130, Pyrimido[2,1-c][1,4]oxazine-2-carboxamide, N-[[4-fluoro-2-[(2S)-2-(hydroxymethyl)-5-oxo-1-pyrrolidinyl]phenyl]methyl]-4,6,7,9-tetrahydro-3-hydroxy-9,9-dimethyl-4-oxo-]	7.00 to 8.70
CN(C)C[C@H]1CCC(=O)N1c1cc(F)ccc1CNC(=O)c1nc2n(c(=O)c1O)CCOC2(C)C [Example 131, (R)—N-(2-(2-((Dimethylamino)methyl)-5-oxopyrrolidin-1-yl)-4-fluorobenzyl)-3-hydroxy-9,9-dimethyl-4-oxo-4,6,7,9-tetrahydropyrimido[2,1-c][1,4]oxazine-2-carboxamide]	6.00 to 7.00
CC1(C)OCCn2c1nc(C(=O)NCc1ccc(F)cc1N1C(=O)CC[C@@H]1CN=[N+]=[N-])c(O)c2=O [Example 132, (R)—N-(2-(2-(Azidomethyl)-5-oxopyrrolidin-1-yl)-4-fluorobenzyl)-3-hydroxy-9,9-dimethyl-4-oxo-4,6,7,9-tetrahydropyrimido[2,1-c][1,4]oxazine-2-carboxamide]	7.00 to 8.70
CC1(C)OCCn2c1nc(C(=O)NCc1ccc(F)cc1N1C(=O)CC[C@@H]1CN)c(O)c2=O [Example 133, (R)—N-(2-(2-(Aminomethyl)-5-oxopyrrolidin-1-yl)-4-fluorobenzyl)-3-hydroxy-9,9-dimethyl-4-oxo-4,6,7,9-tetrahydropyrimido[2,1-c][1,4]oxazine-2-carboxamide]	6.00 to 7.00
CC1(C)OCCn2c1nc(C(=O)NCc1ccc(F)cc1N)c(O)c2=O [Example 134, Pyrimido[2,1-c][1,4]oxazine-2-carboxamide, N-[(2-amino-4-fluorophenyl)methyl]-4,6,7,9-tetrahydro-3-hydroxy-9,9-dimethyl-4-oxo-]	7.00 to 8.70
CC(=O)Nc1cc(F)ccc1CNC(=O)c1nc2n(c(=O)c1O)CCOC2(C)C [Example 135, Pyrimido[2,1-c][1,4]oxazine-2-carboxamide, N-[[2-(acetylamino)-4-fluorophenyl]methyl]-4,6,7,9-tetrahydro-3-hydroxy-9,9-dimethyl-4-oxo-]	7.00 to 8.70
CC(=O)N(C)c1cc(F)ccc1CNC(=O)c1nc2n(c(=O)c1O)CCOC2(C)C [Example 136, Pyrimido[2,1-c][1,4]oxazine-2-carboxamide, N-[[2-(acetylmethylamino)-4-fluorophenyl]methyl]-4,6,7,9-tetrahydro-3-hydroxy-9,9-dimethyl-4-oxo-]	7.00 to 8.70
CC1(C)OCCn2c1nc(C(=O)NCc1ccccc1N1C(=O)C=CC1=O)c(O)c2=O [Example 137, N-(2-(2,5-Dioxo-2H-pyrrol-1(5H)-yl)benzyl)-3-hydroxy-9,9-dimethyl-4-oxo-4,6,7,9-tetrahydropyrimido[2,1-c][1,4]oxazine-2-carboxamide]	7.00 to 8.70
CC1(C)OCCn2c1nc(C(=O)NCc1cccc3ccsc13)c(O)c2=O [Example 138, Pyrimido[2,1-c][1,4]oxazine-2-carboxamide, N-(benzo[b]thien-7-ylmethyl)-4,6,7,9-tetrahydro-3-hydroxy-9,9-dimethyl-4-oxo-]	7.00 to 8.70
CC1(C)OCCn2c1nc(C(=O)NCc1cccc3c1S(=O)(=O)C=C3)c(O)c2=O [Example 139, Pyrimido[2,1-c][1,4]oxazine-2-carboxamide, N-[(1,1-dioxidobenzo[b]thien-7-yl)methyl]-4,6,7,9-tetrahydro-3-hydroxy-9,9-dimethyl-4-oxo-]	7.00 to 8.70
CC1(C)OCCn2c1nc(C(=O)NCc1cccc3c1S(=O)(=O)CC3)c(O)c2=O [Example 140, Pyrimido[2,1-c][1,4]oxazine-2-carboxamide, N-[(2,3-dihydro-1,1-dioxidobenzo[b]thien-7-yl)methyl]-4,6,7,9-tetrahydro-3-hydroxy-9,9-dimethyl-4-oxo-]	7.00 to 8.70
CC1(C)OCCn2c1nc(C(=O)NCc1ccccn1)c(O)c2=O [Example 141, Pyrimido[2,1-c][1,4]oxazine-2-carboxamide, 4,6,7,9-tetrahydro-3-hydroxy-9,9-dimethyl-4-oxo-N-(2-pyridinylmethyl)-]	7.00 to 8.70
Cc1cnc(CNC(=O)c2nc3n(c(=O)c2O)CCOC3(C)C)cn1 [Example 142, Pyrimido[2,1-c][1,4]oxazine-2-carboxamide, 4,6,7,9-tetrahydro-3-hydroxy-9,9-dimethyl-N-[(5-methylpyrazinyl)methyl]-4-oxo-]	7.00 to 8.70
CSc1ccc(CNC(=O)c2nc3n(c(=O)c2O)CCOC3(C)C)cc1 [Example 143, Pyrimido[2,1-c][1,4]oxazine-2-carboxamide, 4,6,7,9-tetrahydro-3-hydroxy-9,9-dimethyl-N-[[4-(methylthio)phenyl]methyl]-4-oxo-]	7.00 to 8.70
Cc1[nH]c2ccc(CNC(=O)c3nc4n(c(=O)c3O)CCOC4(C)C)cc2c1C [Example 144, Pyrimido[2,1-c][1,4]oxazine-2-carboxamide, N-[(2,3-dimethyl-1H-indol-5-yl)methyl]-4,6,7,9-tetrahydro-3-hydroxy-9,9-dimethyl-4-oxo-]	6.00 to 7.00
CC(C)Oc1ccc(CNC(=O)c2nc3n(c(=O)c2O)CCOC3(C)C)cc1 [Example 145, Pyrimido[2,1-c][1,4]oxazine-2-carboxamide, 4,6,7,9-tetrahydro-3-hydroxy-9,9-dimethyl-N-[[4-(1-methylethoxy)phenyl]methyl]-4-oxo-]	< 6.00
CC1(C)OCCn2c1nc(C(=O)NCc1cc(F)cc(F)c1)c(O)c2=O [Example 146, Pyrimido[2,1-c][1,4]oxazine-2-carboxamide, N-[(3,5-difluorophenyl)methyl]-4,6,7,9-tetrahydro-3-hydroxy-9,9-dimethyl-4-oxo-]	7.00 to 8.70
CC1(C)OCCn2c1nc(C(=O)NCc1ccccc1Br)c(O)c2=O [Example 147, Pyrimido[2,1-c][1,4]oxazine-2-carboxamide, N-[(2-bromophenyl)methyl]-4,6,7,9-tetrahydro-3-hydroxy-9,9-dimethyl-4-oxo-]	7.00 to 8.70
CC1(C)OCCn2c1nc(C(=O)NCc1ccccc1-c1cccc3cccnc13)c(O)c2=O [Example 148, Pyrimido[2,1-c][1,4]oxazine-2-carboxamide, 4,6,7,9-tetrahydro-3-hydroxy-9,9-dimethyl-4-oxo-N-[[2-(8-quinolinyl)phenyl]methyl]-]	6.00 to 7.00
COc1ncc(-c2ccccc2CNC(=O)c2nc3n(c(=O)c2O)CCOC3(C)C)c(OC)n1 [Example 149, Pyrimido[2,1-c][1,4]oxazine-2-carboxamide, N-[[2-(2,4-dimethoxy-5-pyrimidinyl)phenyl]methyl]-4,6,7,9-tetrahydro-3-hydroxy-9,9-dimethyl-4-oxo-]	7.00 to 8.70
CC1(C)OCCn2c1nc(C(=O)NCc1ccccc1-c1cccnc1)c(O)c2=O [Example 150, Pyrimido[2,1-c][1,4]oxazine-2-carboxamide, 4,6,7,9-tetrahydro-3-hydroxy-9,9-dimethyl-4-oxo-N-[[2-(3-pyridinyl)phenyl]methyl]-]	7.00 to 8.70
CC1(C)OCCn2c1nc(C(=O)NCc1ccccc1-c1ccc(F)nc1)c(O)c2=O [Example 151]	7.00 to 8.70
COc1ncccc1-c1ccccc1CNC(=O)c1nc2n(c(=O)c1O)CCOC2(C)C [Example 152, Pyrimido[2,1-c][1,4]oxazine-2-carboxamide, 4,6,7,9-tetrahydro-3-hydroxy-N-[[2-(2-methoxy-3-pyridinyl)phenyl]methyl]-9,9-dimethyl-4-oxo-]	7.00 to 8.70
COc1cncc(-c2ccccc2CNC(=O)c2nc3n(c(=O)c2O)CCOC3(C)C)c1 [Example 153, Pyrimido[2,1-c][1,4]oxazine-2-carboxamide, 4,6,7,9-tetrahydro-3-hydroxy-N-[[2-(5-methoxy-3-pyridinyl)phenyl]methyl]-9,9-dimethyl-4-oxo-]	7.00 to 8.70
COc1ccc(-c2ccccc2CNC(=O)c2nc3n(c(=O)c2O)CCOC3(C)C)c(OC)n1 [Example 154, Pyrimido[2,1-c][1,4]oxazine-2-carboxamide, N-[[2-(2,6-dimethoxy-3-pyridinyl)phenyl]methyl]-4,6,7,9-tetrahydro-3-hydroxy-9,9-dimethyl-4-oxo-]	7.00 to 8.70
CC1(C)OCCn2c1nc(C(=O)NCc1ccccc1-c1cnn(Cc3ccccc3)c1)c(O)c2=O [Example 155, Pyrimido[2,1-c][1,4]oxazine-2-carboxamide, 4,6,7,9-tetrahydro-3-hydroxy-9,9-dimethyl-4-oxo-N-[[2-[1-(phenylmethyl)-1H-pyrazol-4-yl]phenyl]methyl]-]	7.00 to 8.70
CC1(C)OCCn2c1nc(C(=O)NCc1ccccc1-c1ccc(N3CCOCC3)nc1)c(O)c2=O [Example 156, Pyrimido[2,1-c][1,4]oxazine-2-carboxamide, 4,6,7,9-tetrahydro-3-hydroxy-9,9-dimethyl-N-[[2-[6-(4-morpholinyl)-3-pyridinyl]phenyl]methyl]-4-oxo-]	7.00 to 8.70
